Source: ChEMBL document CHEMBL4706519, “Evaluation of N-phenyl-2-aminothiazoles for treatment of multi-drug resistant and intracellular Staphylococcus aureus infections” (Eur J Med Chem, 2020)
≈ marks a conversion by molar mass, not a printed value.

Assays:
Staphylococcus aureus [1] = experiment: Antibacterial activity against methicillin-resistant Staphylococcus aureus USA300 NRS384 assessed as inhibition of bacterial growth measured after 18 to 20 hrs by broth microdilution method; format: functional; conditions: time 18-20 hrs
Escherichia coli [2] = experiment: Antibacterial activity against Escherichia coli JW55031 harboring toIC efflux mutant assessed as inhibition of bacterial growth measured after 18 to 20 hrs by broth microdilution method; format: functional; conditions: time 18-20 hrs
Escherichia coli [3] = experiment: Antibacterial activity against wild type Escherichia coli BW25113 assessed as inhibition of bacterial growth measured after 18 to 20 hrs by broth microdilution method; format: functional; conditions: time 18-20 hrs
Staphylococcus aureus [4] = experiment: Ratio of MIC for methicillin-resistant Staphylococcus aureus USA400 NRS123 measured after 14th passage to MIC for methicillin-resistant Staphylococcus aureus USA400 NRS123 measured after 18 to 20 hrs by broth microdilution assay; format: functional
Listeria monocytogenes = experiment: Antibacterial activity against Listeria monocytogenes ATCC 19111 assessed as inhibition of bacterial growth measured after 18 to 20 hrs by CLSI protocol based broth microdilution method; format: functional; conditions: time 18-20 hrs
Staphylococcus aureus [5] = experiment: microbe, parasite or virus in culture; conditions: ATCC 6538
Enterococcus faecalis = experiment: microbe, parasite or virus in culture; conditions: ATCC 51299
Streptococcus pneumoniae [6] = experiment: Antibacterial activity against cephalosporin-resistant Streptococcus pneumoniae ATCC 51916 assessed as inhibition of bacterial growth measured after 18 to 20 hrs by CLSI protocol based broth microdilution method; format: functional; conditions: time 18-20 hrs
[7] = system: Staphylococcus epidermidis; experiment: Antibacterial activity against methicillin-resistant Staphylococcus epidermidis NRS101 assessed as inhibition of bacterial growth measured after 18 to 20 hrs by CLSI protocol based broth microdilution method; format: functional; conditions: time 18-20 hrs
Enterococcus faecium = experiment: Antibacterial activity against vancomycin-resistant Enterococcus faecium ATCC 700221 assessed as inhibition of bacterial growth measured after 18 to 20 hrs by CLSI protocol based broth microdilution method; format: functional; conditions: time 18-20 hrs
Staphylococcus aureus [8] = experiment: Antibacterial activity against vancomycin-resistant Staphylococcus aureus 12 assessed as inhibition of bacterial growth measured after 18 to 20 hrs by CLSI protocol based broth microdilution method; format: functional; conditions: time 18-20 hrs
Staphylococcus aureus [9] = experiment: microbe, parasite or virus in culture; conditions: NRS107
Streptococcus pneumoniae [10] = experiment: Antibacterial activity against methicillin-resistant Streptococcus pneumoniae ATCC 700677 assessed as inhibition of bacterial growth measured after 18 to 20 hrs by CLSI protocol based broth microdilution method; format: functional; conditions: time 18-20 hrs
Staphylococcus aureus [11] = experiment: Antibacterial activity against vancomycin-resistant Staphylococcus aureus 10 assessed as inhibition of bacterial growth measured after 18 to 20 hrs by CLSI protocol based broth microdilution method; format: functional; conditions: time 18-20 hrs
Staphylococcus aureus [12] = experiment: microbe, parasite or virus in culture; conditions: USA700 NRS386
Staphylococcus aureus [13] = experiment: microbe, parasite or virus in culture; conditions: USA400 NRS123
Staphylococcus aureus [14] = experiment: microbe, parasite or virus in culture; conditions: USA500 NRS385
Staphylococcus aureus [15] = experiment: microbe, parasite or virus in culture; conditions: NRS119
physchem = conditions: phosphate-buffered saline, pH 7.4
Staphylococcus aureus [16] = experiment: Bactericidal activity against methicillin-resistant Staphylococcus aureus USA400 NRS123 assessed as post-antibiotic effect at 5 times MIC incubated for 2 hrs followed by compound wash-out by viable plate count method; format: functional

SMILES: C/C(=N\NC(=N)N)c1ccc(Nc2nc(-c3ccc(Br)cc3)cs2)cc1
- MIC (Staphylococcus aureus [1]): 16 µg/mL (≈ 37.3 µM)
- MIC (Escherichia coli [2]): 2 µg/mL (≈ 4.66 µM)
- MIC (Escherichia coli [3]): 4 µg/mL (≈ 9.32 µM)

SMILES: COc1ccc(-c2csc(Nc3ccc(C(C)=O)cc3)n2)cc1
- MIC (Staphylococcus aureus [1]): > 64 µg/mL
- MIC (Escherichia coli [2]): > 64 µg/mL
- MIC (Escherichia coli [3]): > 64 µg/mL

SMILES: COc1ccc(-c2csc(Nc3ccc(/C(C)=N/NC(N)=S)cc3)n2)cc1
- MIC (Staphylococcus aureus [1]): > 64 µg/mL
- MIC (Escherichia coli [2]): > 64 µg/mL
- MIC (Escherichia coli [3]): > 64 µg/mL

SMILES: C/C(=N\NC(N)=O)c1ccc(Nc2nc(-c3ccc(Br)cc3)cs2)cc1
- MIC (Staphylococcus aureus [1]): > 64 µg/mL
- MIC (Escherichia coli [2]): > 64 µg/mL
- MIC (Escherichia coli [3]): > 64 µg/mL

SMILES: COc1ccc(-c2csc(Nc3ccc(/C(C)=N/NC(N)=O)cc3)n2)cc1
- MIC (Staphylococcus aureus [1]): > 64 µg/mL
- MIC (Escherichia coli [2]): > 64 µg/mL
- MIC (Escherichia coli [3]): > 64 µg/mL

SMILES: CC(=O)c1ccc(Nc2nc(-c3ccccc3)cs2)cc1
- MIC (Staphylococcus aureus [1]): > 64 µg/mL
- MIC (Escherichia coli [2]): > 64 µg/mL
- MIC (Escherichia coli [3]): > 64 µg/mL

SMILES: C/C(=N\NC(N)=O)c1ccc(Nc2nc(-c3ccc(Cl)cc3)cs2)cc1
- MIC (Staphylococcus aureus [1]): > 64 µg/mL
- MIC (Escherichia coli [2]): > 64 µg/mL
- MIC (Escherichia coli [3]): > 64 µg/mL

SMILES: CC(=O)c1ccc(Nc2nc(-c3ccc(Br)cc3)cs2)cc1
- MIC (Staphylococcus aureus [1]): > 64 µg/mL
- MIC (Escherichia coli [2]): > 64 µg/mL
- MIC (Escherichia coli [3]): > 64 µg/mL

SMILES: C/C(=N\NC(N)=S)c1ccc(Nc2nc(-c3ccccc3)cs2)cc1
- MIC (Staphylococcus aureus [1]): > 64 µg/mL
- MIC (Escherichia coli [2]): > 64 µg/mL
- MIC (Escherichia coli [3]): > 64 µg/mL

SMILES: C/C(=N\NC(N)=O)c1ccc(Nc2nc(-c3ccc(C)cc3)cs2)cc1
- MIC (Staphylococcus aureus [1]): 32 µg/mL (≈ 87.6 µM)
- MIC (Escherichia coli [2]): 32 µg/mL (≈ 87.6 µM)
- MIC (Escherichia coli [3]): > 64 µg/mL

SMILES: CC(=O)c1ccc(Nc2nc(-c3ccc(C)cc3)cs2)cc1
- MIC (Staphylococcus aureus [1]): > 64 µg/mL
- MIC (Escherichia coli [2]): 64 µg/mL (≈ 208 µM)
- MIC (Escherichia coli [3]): > 64 µg/mL

SMILES: C/C(=N\NC(N)=S)c1ccc(Nc2nc(-c3ccc(Br)cc3)cs2)cc1
- MIC (Staphylococcus aureus [1]): > 64 µg/mL
- MIC (Escherichia coli [2]): > 64 µg/mL
- MIC (Escherichia coli [3]): > 64 µg/mL

SMILES: C/C(=N\NC(N)=S)c1ccc(Nc2nc(-c3ccc(Cl)cc3)cs2)cc1
- MIC (Staphylococcus aureus [1]): 32 µg/mL (≈ 79.6 µM)
- MIC (Escherichia coli [2]): 64 µg/mL (≈ 159 µM)
- MIC (Escherichia coli [3]): > 64 µg/mL

SMILES: C/C(=N\NC(N)=O)c1ccc(Nc2nc(-c3ccccc3)cs2)cc1
- MIC (Staphylococcus aureus [1]): > 64 µg/mL
- MIC (Escherichia coli [2]): > 64 µg/mL
- MIC (Escherichia coli [3]): > 64 µg/mL

SMILES: C/C(=N\NC(N)=S)c1ccc(Nc2nc(-c3ccc(C)cc3)cs2)cc1
- MIC (Staphylococcus aureus [1]): > 64 µg/mL
- MIC (Escherichia coli [2]): > 64 µg/mL
- MIC (Escherichia coli [3]): > 64 µg/mL

SMILES: CC(=O)c1ccc(Nc2nc(-c3ccc(Cl)cc3)cs2)cc1
- MIC (Staphylococcus aureus [1]): > 64 µg/mL
- MIC (Escherichia coli [2]): > 64 µg/mL
- MIC (Escherichia coli [3]): > 64 µg/mL

SMILES: COc1ccc(-c2csc(Nc3ccc(/C(C)=N/NC(=N)N)cc3)n2)cc1
- MIC (Staphylococcus aureus [1]): 32 µg/mL (≈ 84.1 µM)
- MIC (Escherichia coli [2]): 2 µg/mL (≈ 5.26 µM)
- MIC (Escherichia coli [3]): 4 µg/mL (≈ 10.5 µM)

SMILES: O=C(O)c1cn(C2CC2)c2cc(N3CCNCC3)c(F)cc2c1=O [CIPROFLOXACIN]
- Ratio (Staphylococcus aureus [4]): 127

SMILES: CN[C@@H]1[C@@H](O)[C@@H](O[C@@H]2[C@@H](O)[C@H](O[C@H]3O[C@H]([C@@H](C)N)CC[C@H]3N)[C@@H](N)C[C@H]2N)OC[C@]1(C)O [GENTAMICIN C2]
- MIC (Escherichia coli [2]): 0.25 µg/mL (≈ 0.539 µM)
- MIC (Escherichia coli [3]): 0.25 µg/mL (≈ 0.539 µM)

SMILES: CC(=O)NC[C@H]1CN(c2ccc(N3CCOCC3)c(F)c2)C(=O)O1 [LINEZOLID]
- MBC (Listeria monocytogenes): 16 µg/mL (≈ 47.4 µM)
- MIC (Listeria monocytogenes): ≤ 0.5 µg/mL
- MBC (Staphylococcus aureus [5]): 16 µg/mL (≈ 47.4 µM)
- MIC (Staphylococcus aureus [5]): 1 µg/mL (≈ 2.96 µM)
- MBC (Enterococcus faecalis): 16 µg/mL (≈ 47.4 µM)
- MBC (Streptococcus pneumoniae [6]): 32 µg/mL (≈ 94.9 µM)
- MBC [7]: 16 µg/mL (≈ 47.4 µM)
- MIC [7]: 1 µg/mL (≈ 2.96 µM)
- MBC (Enterococcus faecium): 16 µg/mL (≈ 47.4 µM)
- MIC (Enterococcus faecium): 1 µg/mL (≈ 2.96 µM)
- MBC (Staphylococcus aureus [8]): 64 µg/mL (≈ 190 µM)
- MIC (Staphylococcus aureus [8]): 1 µg/mL (≈ 2.96 µM)
- MBC (Staphylococcus aureus [9]): 64 µg/mL (≈ 190 µM)
- MIC (Staphylococcus aureus [9]): 1 µg/mL (≈ 2.96 µM)
- MBC (Streptococcus pneumoniae [10]): 16 µg/mL (≈ 47.4 µM)
- MBC (Staphylococcus aureus [11]): > 64 µg/mL
- MIC (Staphylococcus aureus [11]): 1 µg/mL (≈ 2.96 µM)
- MBC (Staphylococcus aureus [12]): 64 µg/mL (≈ 190 µM)
- MBC (Staphylococcus aureus [13]): 32 µg/mL (≈ 94.9 µM)
- MIC (Staphylococcus aureus [13]): 1 µg/mL (≈ 2.96 µM)
- MBC (Staphylococcus aureus [14]): 32 µg/mL (≈ 94.9 µM)
- MIC (Staphylococcus aureus [14]): 1 µg/mL (≈ 2.96 µM)
- MBC (Staphylococcus aureus [15]): > 64 µg/mL
- MIC (Staphylococcus aureus [15]): 64 µg/mL (≈ 190 µM)

SMILES: CO[C@H]1/C=C/O[C@@]2(C)Oc3c(C)c(O)c4c(O)c(c(/C=N/N5CCN(C)CC5)c(O)c4c3C2=O)NC(=O)/C(C)=C\C=C\[C@H](C)[C@H](O)[C@@H](C)[C@@H](O)[C@@H](C)[C@H](OC(C)=O)[C@@H]1C [RIFAMPIN]
- solubility kinetic at 2 h (physchem): 183 µM (≈ 151 µg/mL)

SMILES: CN[C@H](CC(C)C)C(=O)N[C@H]1C(=O)N[C@@H](CC(N)=O)C(=O)N[C@H]2C(=O)N[C@H]3C(=O)N[C@H](C(=O)N[C@H](C(=O)O)c4cc(O)cc(O)c4-c4cc3ccc4O)[C@H](O)c3ccc(c(Cl)c3)Oc3cc2cc(c3O[C@@H]2O[C@H](CO)[C@@H](O)[C@H](O)[C@H]2O[C@H]2C[C@](C)(N)[C@H](O)[C@H](C)O2)Oc2ccc(cc2Cl)[C@H]1O [VANCOMYCIN]
- MIC (Listeria monocytogenes): 1 µg/mL (≈ 0.69 µM)
- MBC (Staphylococcus aureus [5]): 2 µg/mL (≈ 1.38 µM)
- MBC (Enterococcus faecalis): 64 µg/mL (≈ 44.2 µM)
- MIC (Enterococcus faecalis): 32 µg/mL (≈ 22.1 µM)
- MIC (Streptococcus pneumoniae [6]): 1 µg/mL (≈ 0.69 µM)
- MBC [7]: 2 µg/mL (≈ 1.38 µM)
- PAE (Staphylococcus aureus [16]): 2 h
- MBC (Enterococcus faecium): > 64 µg/mL
- MIC (Enterococcus faecium): > 64 µg/mL
- MBC (Staphylococcus aureus [8]): 64 µg/mL (≈ 44.2 µM)
- MIC (Staphylococcus aureus [8]): 64 µg/mL (≈ 44.2 µM)
- MBC (Staphylococcus aureus [9]): 2 µg/mL (≈ 1.38 µM)
- MIC (Streptococcus pneumoniae [10]): 2 µg/mL (≈ 1.38 µM)
- MBC (Staphylococcus aureus [11]): > 64 µg/mL
- MIC (Staphylococcus aureus [11]): 64 µg/mL (≈ 44.2 µM)
- MBC (Staphylococcus aureus [12]): 1 µg/mL (≈ 0.69 µM)
- MBC (Staphylococcus aureus [13]): 1 µg/mL (≈ 0.69 µM)
- MBC (Staphylococcus aureus [14]): 1 µg/mL (≈ 0.69 µM)
- MBC (Staphylococcus aureus [15]): 2 µg/mL (≈ 1.38 µM)
